Source: patent publication US20020168658A1, “Amplification of nucleic acids” (YALE UNIVERSITY, priority 1995, published 2002)

How the values were obtained:
TFR template (44% G+C) = assay: Amplification using two enzyme mixture Klentaq LA16 with additives; type: biochemical, human; settings: for TFR amplification: salt >0.15 M; for amplification of TFR: Klentaq LA16, 2.2 M betaine or 10% DMSO, FIG. 1A lanes 3-4
Protocol: (§1) Each of the G+C-rich templates is set up in an amplification reaction using a two enzyme mixture, with and without the addition of betaine (0.5 to 2.5 M), DMSO (5-10%), formnamide (5-10%), glycerol (5-10%), TMACl (0.1 mM to 1 M), and tetramethylammonium acetate (TMAA) (0.1 mM-1.0 M).
(§2) The amplification reaction (50 μl) is performed in 20 mM Tris-HCl, pH 9.0 at 25° C., containing 150 μg/ml of bovine serum albumin, 16 mM ammonium sulfate, 2.5 mM magnesium chloride, 200 μM of each dNTP, 50 ng each of the M13 forward primer and the M13 reverse primer, 0.5-1.0 ng of plasmid templates and 0.2-0.4 μl of Klentaq LA16 (a 1:15 v/v ratio of Klentaq1 (Ab Peptides Inc., St. Louis, Mo.), which is Taq DNA polymerase lacking the 5′ to 3′ exonuclease activity, and Pfu DNA polymerase (Stratagene, LaJolla, Calif.); the long and accurate (LA) system described in Barnes, Proc. Natl. Acad. Sci. USA 91:2216, 1994). DMSO, TMACl, TMAA, betaine, or the combination of DMSO and betaine is added to aliquots of the same mixture without dNTPs and overlaid with mineral oil. Amplification is performed in a thermocycler instrument using thin-walled tubes (0.5 ml). The tubes are heated at 95° C. for 15 seconds and amplification is initiated by the addition of dNTPs at 80° C. The following cycling conditions are used for 25 cycles: denaturation at 94° C. for 15 seconds, annealing at 50 to 55° C. for 1 minute, and extension at 68° C. for 5 minutes. Following amplification, 10 μl of the resulting product is loaded onto a 1% agarose gel (see Molecular Cloning: A Laboratory Manual by J. Sambrook et al., Cold Spring Harbor, 1989). The amplified DNA is stained with ethidium bromide and the gel is photographed while UV-irradiated by a transilluminator.
(§3) Various analogues of betaine and two tetraalkylammonium salts are used to amplify OCT-T1 or TFR templates. Amplification reactions are performed as above in the presence of either 2 M analogue or at least 0.15 M salt.

[1] = tested on: OCT-T1 template (80% G+C); assay: as above; type: biochemical, human; settings: for OCT-T1 amplification: salt >0.15 M; for amplification of OCT-T1: Klentaq LA16, 2.2 M betaine or 10% DMSO, FIG. 1A lanes 7-8
Protocol: as §1, §2, §3

OCT1 template = assay: as above; type: biochemical, human; settings: for effect on amplification of OCT1: at 0.1-1.0 M; for amplification of OCT1: 2.2 M betaine or 10% DMSO, FIG. 1A lanes 1-2
Protocol: as §1, §2

MHCcln1 template = assay: as above; type: biochemical; settings: 2.2 M betaine or 10% DMSO, FIG. 1A lanes 5-6
Protocol: as §1
as §2, with “The following cycling conditions are used for 25 cycles: denaturation at 94° C. for 15 seconds, annealing at 50 to 55° C. for 1 minute, and extension at 68° C. for 5 minutes. Following amplification, 10 μl of the resulting product is loaded onto a 1% agarose gel (see Molecular Cloning: A Laboratory Manual by J. Sambrook et al., Cold Spring Harbor, 1989). The amplified DNA is stained with ethidium bromide and the gel is photographed while UV-irradiated by a transilluminator.” left out

[2] = tested on: mixture of the 4 templates, OCT1, OCT-T1, TFR and MHCcln1; assay: Amplification of a mixture of the four templates using Klentaq LA16, varying DMSO and/or betaine; type: biochemical; settings: for uniformity of amplification of the four templates: DMSO (5%, 10%) or betaine (1.1 M, 2.2 M) alone, FIG. 1B lanes 9-12
Protocol: as §2
Amplification is also performed on a mixture of the four templates, varying the concentrations of DMSO and/or betaine. […] Thus, by adding both DMSO and betaine, preferably within a range of 1.0 M betaine with 6-8% DMSO or 5% DMSO with 1.2-1.8 M betaine, all four templates are amplified.

[3] = tested on: OCT-T1 template (80% G+C); assay: Amplification using AmpliTaq DNA polymerase under standard conditions with additives; type: biochemical, human; settings: DMSO 10% v/v, betaine up to 2.5 M, glycerol 10% v/v, formamide 10% v/v, TMACl 0.1 mM to 1.0 M
Description: (§4) A number of test DNAs are utilized in amplification reactions. Four of the test fragments are:
(iii) a 0.8 kb fragment of human OCT-T1 cDNA, which encodes a transcription factor expressed in T lymphocytes that binds the octamer sequence, and which has an 80% G+C content (see Bhargava et al., Proc. Natl. Acad. Sci. USA 91:10260, 1993; SEQ ID NO. 4); and
As each of these fragments are cloned in pBluescript or a pUC plasmid (MHCcln1), primers for amplification of these fragments are the M13 forward primer ([…]; SEQ. ID No. 1) and the M13 reverse primer ([…]; SEQ ID No. 2). Thus, the sizes of the amplified fragments for each of these four templates, with the exception of MHCcln1, include 200 bp of multiple cloning sites of pBluescript vector.
The two G+C-rich templates are unsuccessfully amplified (MHCcln1 and OCT-T1) using AmpliTaq® DNA polymerase (Perkin-Elmer Cetus) under standard conditions. (See Science 239:487, 1988). […] In addition, betaine (>1.0 M), formamide (>5%), and TMACl (>100 mM) are inhibitory for amplification of the non-G+C-rich template OCT1.

[4] = tested on: MHCcln1 template (64% G+C); assay: as above; type: biochemical; settings: DMSO 10% v/v, betaine up to 2.5 M, glycerol 10% v/v, formamide 10% v/v, TMACl 0.1 mM to 1.0 M
Description: as §4
(ii) a 1.6 kb fragment from the MHC region, MHCclnl, which has a 64% G+C content (see Shukla et al., Nucleic Acids Res. 19:4233, 1991; GenBank Accession No. L20433; SEQ ID No. 3, which presents nucleotides 320 to 850 of L20433);
(§5) Thus, the sizes of the amplified fragments for each of these four templates, with the exception of MHCcln1, include 200 bp of multiple cloning sites of pBluescript vector.
(§6) (See Science 239:487, 1988).

OCT1 template (52% G+C) = assay: as above; type: biochemical, human
Description: as §4
(i) a 2.7 kb cDNA encoding the octamer binding protein, OCT1 GenBank accession No. X13403; Sturm et al., Genes & Dev. 2:1582, 1988; SEQ ID No. 8), which has a 52% G+C content;
as §5, §6

[5] = higher concentration of DMSO (12-15%) or betaine (1.8-2.5 M)

Row | amplification of MHCcln1 (MHCcln1 template) | visible amplification of OCT-T1 [3] | visible amplification of MHCcln1 [4] | amplification of TFR (TFR template (44% G+C)) | amplification of OCT-T1 [1] | amplification of OCT1 (OCT1 template) | effect on amplification of the non-G+C-rich template OCT1 (OCT1 template (52% G+C); betaine >1.0 M) | SMILES | TFR amplification (TFR template (44% G+C)) | OCT-T1 amplification [1] | effect on amplification of OCT1 (OCT1 template) | uniformity of amplification of the four templates [2] | amplification of all four templates [2, 5] | effect on amplification of the non-G+C-rich template OCT1 (OCT1 template (52% G+C); TMACl >100 mM) | amplification of all four templates ([2]; 2.2 M betaine (lane 12)) | effect on amplification of the non-G+C-rich template OCT1 (OCT1 template (52% G+C); formamide >5%)
1 | could be amplified | did not result in visible amplification | did not result in visible amplification | could be amplified | could be amplified | could be amplified | – | C[S+](C)[O-] [DMSO, dimethyl sulfoxide] | – | – | – | not amplified uniformly | variable amplification | – | – | –
2 | could be amplified | did not result in visible amplification | did not result in visible amplification | could be amplified | could be amplified | could be amplified | inhibitory | C[N+](C)(C)CC(=O)O [Glycine betaine] | – | – | – | not amplified uniformly | variable amplification | – | amplified to a varying extent | –
3 | – | did not result in visible amplification | did not result in visible amplification | – | – | – | – | OCC(O)CO [glycerol] | – | – | – | – | – | – | – | –

The next lines start with the compound.

Row | SMILES | amplification of MHCcln1 (MHCcln1 template) | visible amplification of OCT-T1 [3] | visible amplification of MHCcln1 [4] | amplification of TFR (TFR template (44% G+C)) | amplification of OCT-T1 [1] | amplification of OCT1 (OCT1 template) | effect on amplification of the non-G+C-rich template OCT1 (OCT1 template (52% G+C); betaine >1.0 M) | TFR amplification (TFR template (44% G+C)) | OCT-T1 amplification [1] | effect on amplification of OCT1 (OCT1 template) | uniformity of amplification of the four templates [2] | amplification of all four templates [2, 5] | effect on amplification of the non-G+C-rich template OCT1 (OCT1 template (52% G+C); TMACl >100 mM) | amplification of all four templates ([2]; 2.2 M betaine (lane 12)) | effect on amplification of the non-G+C-rich template OCT1 (OCT1 template (52% G+C); formamide >5%)
4 | CC(=O)[O-].C[N+](C)(C)C [TMAA, tetramethylammonium acetate] | – | – | – | – | – | – | – | unable to facilitate amplification | unable to facilitate amplification | inhibit amplification | – | – | – | – | –
5 | C[N+](C)(C)C.[Cl-] [TMAC, tetramethylammonium chloride] | – | did not result in visible amplification | did not result in visible amplification | – | – | – | – | unable to facilitate amplification | unable to facilitate amplification | inhibit amplification | – | – | inhibitory | – | –
6 | NC=O [formamide] | – | did not result in visible amplification | did not result in visible amplification | – | – | – | – | – | – | – | – | – | – | – | inhibitory
